Measurements taken from patent US12329755B2, “Bromodomain inhibitors to target therapy-resistant cancer” (University of Tennessee Research Foundation, priority 2019, dated 2025).
“Also recorded” adds a separate entry of the source.

Columns and labels:
X16 BTICs = conditions: X16 BTICs; cited from earlier work
X10 BTICs = conditions: X10 BTICs; cited from earlier work
[1] = molecular target: T1, GFP-tagged bromodomain of BRG1 (GFP-BRG1 BRD) (Homo sapiens, UniProt P51532); assay: nuclear localization of fluorescently tagged BRG1 bromodomain in MT330 GBM cells; format: cell-based; conditions: PFI-3 10 or 30 μM; IV-073 5, 10 or 30 μM; compared to DMSO
T1 construct: a fluorescently tagged bromodomain of BRG1 expressed in MT330 GBM cells; expressed in transfected cells; host or cells: MT330 GBM cells
From the text: FIG. 4 is a series of fluorescence microscopy images showing the effects of Brahma-related gene-1 bromodomain inhibitors (BRIs) on the nuclear localization of a green fluorescent protein (GFP)-tagged bromodomain of Brahma-related gene-1 (GFP-BRG1 BRD).
The effects of PFI-3 and its analogs on the nuclear localization of a fluorescently tagged bromodomain of BRG1 expressed in MT330 GBM cells was studied. In the control samples, the fluorescent bromodomain is localized to the nucleus. However, an inhibitor displaces it from the nucleus and the fluorescence signal markedly decreases because it is degraded in the cytoplasm.

GBM cells [2] = assay: overall statements on GBM cell death and sensitization to TMZ; format: cell-based; conditions: for sensitizing activity to TMZ compared to PFI-3: in vitro and in an animal model of GBM; for GBM cell death: used alone
From the text: The syntheses of two exemplary PA BRIs, referred to herein as YH-IV-073 (or IV-073), and YH-IV-077 (or IV-077), as well as of PFI-3 (also referred to herein as YH-IV-081), are shown in Scheme 2, below. As shown in Scheme 2, commercially available tert-butyloxycarbonyl (BOC)-protected amine 1 is contacted with 2-bromopyridine (2) to form intermediate 3. The protecting group can be removed (e.g., via hydrolysis) to give the corresponding amine 4. Compound 4 can be coupled with a carboxylic acid (5, 6, or 7) to afford target YH-IV-073, YH-IV-077 and YH-IV-081, respectively. […] These analogs will provide greater insight into the importance of substitution of the A ring.
The synthetic route shown in Scheme 3, below, was used to synthesize new analogs with different substituents in the 2-position of the A-ring, such as YH-IV-085. As shown in Scheme 3, a commercially available 1-phenylprop-2-yn-1-one (e.g., 8 or 9) can be reacted with BOC-protected amine compound 1 to afford a BOC-protected intermediate (e.g., 10 or 11), which can be hydrolyzed to provide corresponding deprotected intermediate (12 or 13). The intermediates can be coupled with the 2-bromopyridine (2) to yield target compounds (e.g., 14 or YH-IV-085), respectively. YH-IV-085 is believed to be the first PFI-3 analog prepared without a 2-hydroxy moiety in the A-ring.

[3] = test system: LN229 TMZ-resistant glioma cell line; assay: IncuCyte live cell imaging proliferation assay; format: cell-based; conditions: for sensitization to TMZ: BRI 1 μM combined with 100 μM TMZ; for effect on cell growth: BRI alone (1 μM)
Method: (§1) FIG. 2A is a graph showing relative growth of temozolomide (TMZ)-resistant glioma cells (LN229 cells) alone (control); after treatment with 100 micromolar (μM) TMZ; after treatment with a Brahma-related gene-1 bromodomain inhibitor (BRI), PFI-3 (1 μM); or after treatment with both TMZ and PFI-3 (combined).
as §1, with “2B” for “2A”, “IV-073” for “PFI-3”
as §1, with “2C” for “2A”, “LN229 Temozolomide” for “temozolomide”, “cells” for “cells (LN229 cells)”, “IV-077” for “PFI-3”
as §1, with “2D” for “2A”, “LN229 Temozolomide” for “temozolomide”, “cells” for “cells (LN229 cells)”, “IV-085” for “PFI-3”
To determine whether PFI-3 (also called YH-IV-081) and its analogs (referred to herein as “PAs”) enhanced TMZ sensitivity IncuCyte live cell imaging proliferation assays (high throughput system) were performed with the LN229 TMZ-resistant glioma cell line.

bromodomain of BRG1 = molecular target: T2, bromodomain of BRG1 (Homo sapiens, UniProt P51532); assay: thermal shift assay of the BRG1 bromodomain in MT330 GBM cells; format: binding; conditions: 44.5° C. to 55.6° C.; PFI-3 30 μM, IV-073 20 μM, two hours; compared to DMSO
T2 construct: The assay involved the use of the bromodomain of BRG1 in MT330 GBM cells; expressed in transfected cells; host or cells: MT330 GBM cells
Method: FIG. 3 is a series of immunoblot images showing the effects of Brahma-related gene-1 bromodomain inhibitors (BRIs) on the stability of the bromodomain of Brahma-related gene-1 in a thermal assay shift of the bromodomain in glioblastoma cells over a temperature range from 44.5 degrees Celsius (° C.) to 55.6° C. Cells were treated with (middle) PFI-3 (30 micromolar (μM)) for two hours or (right), a PFI-3 analog of the presently disclosed subject matter (IV-073) (20 μM) for two hours. For comparison, control cells treated with dimethyl sulfoxide (DMSO) are shown at […].
To further study the activity of the presently disclosed PFI-3 analogs, a thermal shift assay was employed. The assay involved the use of the bromodomain of BRG1 in MT330 GBM cells at temperatures ranging from 44.5° C. to 55.6° C.

X16 BTIC = X16 BTIC mouse flank xenografts; format: in vivo, mice; conditions: combined with TMZ; for tumor growth: 2 weeks post-treatment, compared with PFI-3 and TMZ, BRI 0.5 μg/mouse, TMZ 0.25 mg/mouse IP alternate days
Method: FIG. 1F is a graph showing the effect of temozolomide (TMZ) on the tumorigenicity of control (black portion of bars) and Brahma-related gene-1-knock-down (BRG1-KD) (grey portion of bars) brain-tumor initiating cells (BTICs) after injection of 10^6 tumor cells into the flanks of immunodeficient mice. Live animal imaging preformed at weekly intervals. After confirming tumor initiation by live animal imaging, mice were treated with TMZ by interperitoneal (IP) injection (10 milligrams per kilogram (mg/kg) on alternate days). The reduction in tumor volume was calculated at 1 week (left) and 2 weeks (right) post-treatment. *p≤0.05.
FIG. 5 is a graph showing the effect of Brahma-related gene-1 bromodomain inhibitors (BRIs), PFI-3 and the PFI-3 analogs (PAs) IV-073, IV-077, and IV-085, on the anticancer activity of temozolomide (TMZ) on brain-tumor initiating-cell (BTIC) tumor growth. BTICs (10^6 cells) from X16 glioblastoma were injected into the flanks of immunodeficient mice. After confirming tumor initiation by live animal imaging, mice were treated with PFI-3 or a PA (0.5 microgram per mouse (μg/mouse)) and TMZ (0.25 mg/mouse) by intrarperitoneal (IP) injection on alternate days. The reduction in tumor volume was calculated at 2 weeks post-treatment.
BRG1 loss sensitizes BTICs to TMZ in vitro and in vivo: Although the alkylating agent TMZ is front-line chemotherapy in the treatment of GBM, a significant clinical problem is intrinsic or adaptive resistance to TMZ.^63 To evaluate TMZ sensitivity, GBM6 or X16 BTICs were treated with 300 μM or 500 μM TMZ, and cell proliferation was determined. […] Since BRG1 has been implicated in DNA double-strand break repair,^65-67 it was hypothesized that BRG1 loss in BTICs would sensitize BTICs to TMZ. […] To determine whether BRG1-KD sensitized BTICs to TMZ in vivo, animal studies were conducted with control (scrambled shRNA) and BRG1-KD X16 BTICs injected into the flanks of NSG mice. After tumor initiation was confirmed by live animal imaging, mice were treated with TMZ. […] Thus, despite X16 BRG1-KD BTICs producing larger tumors, the tumors were sensitized to TMZ therapy.
In contrast, all mice with single drug treatment had to be euthanized because the tumors had reached […] by 3 weeks post-treatment.

GBM cells [4] = assay: survival of mice after intracranial injection of GBM cells; format: in vivo; conditions: combination with TMZ, intraperitoneal, 10 mg/kg body weight
Method: FIG. 6 is a graph showing the survival curves (percent survival versus days after treatment) of mice after intracranial injection of glioblastoma (GBM) cells and intraperitoneal injection of temozolomide (TMZ) or combinations of TMZ and a Brahma-related gene-1 bromodomain inhibitors (BRIs): PFI-3 or one of the presently disclosed PFI-3 analogs (PAs) IV-073 or IV-085. Five mice per group were treated with TMZ with or without the BRI (10 milligrams per kilogram (mg/kg) body weight.
TMZ with or without a BRI was also tested in mice after intercranial injection of GBM cells.

T1 sequence (P51532 1453-1564 limits assumed): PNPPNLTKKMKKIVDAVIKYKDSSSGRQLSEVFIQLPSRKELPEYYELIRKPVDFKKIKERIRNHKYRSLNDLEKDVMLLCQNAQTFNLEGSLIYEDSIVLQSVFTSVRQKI
T2 sequence (P51532 1453-1564 limits assumed): as above

SMILES	Carmustine sensitivity (X16 BTICs)	Carmustine sensitivity (X10 BTICs)	displacement of the BRG1 bromodomain from the nucleus [1]	sensitizing activity to TMZ compared to PFI-3 (GBM cells [2]; listed as YH-IV-073)	GBM cell death (GBM cells [2])	sensitization to TMZ [3]	effect on cell growth [3]	stabilization of the BRG1 bromodomain (bromodomain of BRG1)	tumor growth (X16 BTIC)	tumors after treatment for 8 weeks (X16 BTIC)	sensitizing activity to TMZ compared to PFI-3 (GBM cells [2])	animal survival (GBM cells [4])
O=NN(CCCl)C(=O)NCCCl [Carmustine]	highly resistant	highly resistant										
O=C(/C=C/N1C[C@H]2C[C@@H]1CN2c1ccccn1)c1cc(F)ccc1O [IV-073, (E)-1-(5-fluoro-2-hydroxyphenyl)-3-((1R,4R)-5-(pyridin-2-yl)-2,5-diazabicyclo[2.2.1]heptan-2-yl)prop-2-en-1-one]			more effective in displacing the bromodomain	significantly improved sensitizing activity; also recorded: better efficacy	do not cause GBM cell death	potently sensitized	relatively minor effects on cell growth	more effective in stabilizing the bromodomain	marked effect on tumor growth	only small tumors were detectable		
O=C(/C=C/N1C[C@H]2C[C@@H]1CN2c1ccccn1)c1ccc(Cl)cc1O [IV-077, (E)-1-(4-chloro-2-hydroxyphenyl)-3-((1R,4R)-5-(pyridin-2-yl)-2,5-diazabicyclo[2.2.1]heptan-2-yl)prop-2-en-1-one]					do not cause GBM cell death	potently sensitized	relatively minor effects on cell growth				significantly improved sensitizing activity	
O=C(/C=C/N1C[C@H]2C[C@@H]1CN2c1ccccn1)c1ccccc1Cl [IV-085, (E)-1-(2-chlorophenyl)-3-((1R,4R)-5-(pyridin-2-yl)-2,5-diazabicyclo [2.2.1]heptan-2-yl) prop-2-en-1-one]					do not cause GBM cell death	potently sensitized	relatively minor effects on cell growth		marked effect on tumor growth	only small tumors were detectable	significantly improved sensitizing activity	greatest effect
